Experimental data from ChEMBL document CHEMBL1156762, “Deciphering the mechanism of carbonic anhydrase inhibition with coumarins and thiocoumarins” (J Med Chem, 2010).
pKi: −log10 of the molar value.

Columns and labels:
Carbonic anhydrase 13 = Carbonic anhydrase 13 (Mus musculus, UniProt Q9D6N1)
Carbonic anhydrase 9 = Carbonic anhydrase 9 (Homo sapiens, UniProt Q16790)
Carbonic anhydrase 6 = Carbonic anhydrase 6 (Homo sapiens, UniProt P23280)
Carbonic anhydrase 15 = biological target: T1, Carbonic anhydrase 15 (Mus musculus, UniProt Q99N23)
T1 sequence (Q99N23 whole entry): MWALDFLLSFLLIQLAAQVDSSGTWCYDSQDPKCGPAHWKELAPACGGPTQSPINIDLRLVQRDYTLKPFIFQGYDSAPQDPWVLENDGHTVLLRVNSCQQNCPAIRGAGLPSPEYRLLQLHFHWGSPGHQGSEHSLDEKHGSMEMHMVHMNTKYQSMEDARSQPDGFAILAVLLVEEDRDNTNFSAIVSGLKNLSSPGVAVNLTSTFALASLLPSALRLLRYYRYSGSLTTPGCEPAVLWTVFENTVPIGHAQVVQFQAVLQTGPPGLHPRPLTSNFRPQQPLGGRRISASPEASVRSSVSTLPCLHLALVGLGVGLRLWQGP

[1] = biological target: Carbonic anhydrase 5B, mitochondrial (Homo sapiens, UniProt Q9Y2D0)
Sequence of Carbonic anhydrase 5B, mitochondrial (Q9Y2D0 whole entry): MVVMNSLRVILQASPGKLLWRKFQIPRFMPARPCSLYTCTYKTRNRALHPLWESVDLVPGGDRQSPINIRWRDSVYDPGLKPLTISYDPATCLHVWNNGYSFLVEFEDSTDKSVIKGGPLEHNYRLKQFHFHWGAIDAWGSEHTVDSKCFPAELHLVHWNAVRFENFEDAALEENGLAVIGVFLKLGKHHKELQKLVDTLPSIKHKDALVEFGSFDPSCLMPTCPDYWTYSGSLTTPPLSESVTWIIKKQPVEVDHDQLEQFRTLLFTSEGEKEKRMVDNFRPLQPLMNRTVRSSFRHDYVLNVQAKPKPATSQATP

Carbonic anhydrase 14 = Carbonic anhydrase 14 (Homo sapiens, UniProt Q9ULX7)
Sequence of Carbonic anhydrase 14 (Q9ULX7 whole entry): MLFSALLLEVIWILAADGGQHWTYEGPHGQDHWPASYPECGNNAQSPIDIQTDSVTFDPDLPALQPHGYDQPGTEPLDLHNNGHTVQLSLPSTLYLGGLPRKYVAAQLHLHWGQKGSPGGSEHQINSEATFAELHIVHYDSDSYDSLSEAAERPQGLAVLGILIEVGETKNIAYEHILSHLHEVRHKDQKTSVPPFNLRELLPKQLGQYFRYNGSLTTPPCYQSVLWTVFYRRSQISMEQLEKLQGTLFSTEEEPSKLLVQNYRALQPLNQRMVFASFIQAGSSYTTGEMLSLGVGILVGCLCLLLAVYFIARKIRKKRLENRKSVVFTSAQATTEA

Carbonic anhydrase 2 [2] = biological target: T2, Carbonic anhydrase 2 (Homo sapiens, UniProt P00918)
Carbonic anhydrase 3 = Carbonic anhydrase 3 (Homo sapiens, UniProt P07451)
Sequence of Carbonic anhydrase 3 (P07451 whole entry): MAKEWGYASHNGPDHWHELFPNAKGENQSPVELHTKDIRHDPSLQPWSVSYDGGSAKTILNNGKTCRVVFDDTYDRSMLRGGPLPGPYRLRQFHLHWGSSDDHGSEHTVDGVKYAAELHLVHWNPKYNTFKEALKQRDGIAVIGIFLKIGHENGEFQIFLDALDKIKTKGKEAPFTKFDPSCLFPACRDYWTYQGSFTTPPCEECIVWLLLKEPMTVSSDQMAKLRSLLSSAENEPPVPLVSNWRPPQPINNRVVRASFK

Carbonic anhydrase 2 [3] = biological target: T2, Carbonic anhydrase 2; remark: listed apart in the source
[4] = biological target: Carbonic anhydrase 5A, mitochondrial (Homo sapiens, UniProt P35218)
Sequence of Carbonic anhydrase 5A, mitochondrial (P35218 whole entry): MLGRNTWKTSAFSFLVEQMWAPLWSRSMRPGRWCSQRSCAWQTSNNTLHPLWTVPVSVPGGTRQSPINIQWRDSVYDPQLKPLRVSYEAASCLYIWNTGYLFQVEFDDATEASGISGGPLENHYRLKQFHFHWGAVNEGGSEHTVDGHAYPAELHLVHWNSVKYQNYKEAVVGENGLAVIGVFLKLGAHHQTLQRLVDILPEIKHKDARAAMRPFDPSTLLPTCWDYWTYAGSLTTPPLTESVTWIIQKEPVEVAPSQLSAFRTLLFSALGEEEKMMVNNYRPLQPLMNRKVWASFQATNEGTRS

Carbonic anhydrase 4 = Carbonic anhydrase 4 (Homo sapiens, UniProt P22748)
Sequence of Carbonic anhydrase 4 (P22748 whole entry): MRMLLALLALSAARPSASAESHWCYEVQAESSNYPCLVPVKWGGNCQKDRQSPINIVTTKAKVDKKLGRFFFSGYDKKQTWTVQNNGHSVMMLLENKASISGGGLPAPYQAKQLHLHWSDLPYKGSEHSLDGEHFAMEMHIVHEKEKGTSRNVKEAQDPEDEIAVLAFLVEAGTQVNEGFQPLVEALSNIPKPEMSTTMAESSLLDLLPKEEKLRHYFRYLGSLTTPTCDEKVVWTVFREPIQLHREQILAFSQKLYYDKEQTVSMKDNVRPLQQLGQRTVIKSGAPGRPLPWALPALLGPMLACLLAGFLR

Carbonic anhydrase 7 = Carbonic anhydrase 7 (Homo sapiens, UniProt P43166)
Sequence of Carbonic anhydrase 7 (P43166 whole entry): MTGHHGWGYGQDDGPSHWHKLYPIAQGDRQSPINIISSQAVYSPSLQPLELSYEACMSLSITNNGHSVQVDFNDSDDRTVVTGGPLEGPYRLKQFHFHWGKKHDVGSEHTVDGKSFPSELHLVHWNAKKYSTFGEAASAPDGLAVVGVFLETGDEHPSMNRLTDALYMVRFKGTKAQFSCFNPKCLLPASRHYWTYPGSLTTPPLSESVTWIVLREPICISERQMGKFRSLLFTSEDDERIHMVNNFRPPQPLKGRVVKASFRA

Carbonic anhydrase 12 = Carbonic anhydrase 12 (Homo sapiens, UniProt O43570)
Sequence of Carbonic anhydrase 12 (O43570 whole entry): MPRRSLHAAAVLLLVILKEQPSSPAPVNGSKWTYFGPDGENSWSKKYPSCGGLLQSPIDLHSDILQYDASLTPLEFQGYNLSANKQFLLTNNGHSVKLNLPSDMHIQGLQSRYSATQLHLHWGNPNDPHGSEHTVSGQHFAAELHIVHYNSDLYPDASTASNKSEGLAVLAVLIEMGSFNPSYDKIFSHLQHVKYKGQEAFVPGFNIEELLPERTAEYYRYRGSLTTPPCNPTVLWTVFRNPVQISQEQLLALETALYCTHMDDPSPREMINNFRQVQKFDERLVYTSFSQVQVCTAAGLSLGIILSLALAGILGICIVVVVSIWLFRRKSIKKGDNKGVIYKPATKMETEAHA

Sequence of Carbonic anhydrase 6 (P23280 whole entry): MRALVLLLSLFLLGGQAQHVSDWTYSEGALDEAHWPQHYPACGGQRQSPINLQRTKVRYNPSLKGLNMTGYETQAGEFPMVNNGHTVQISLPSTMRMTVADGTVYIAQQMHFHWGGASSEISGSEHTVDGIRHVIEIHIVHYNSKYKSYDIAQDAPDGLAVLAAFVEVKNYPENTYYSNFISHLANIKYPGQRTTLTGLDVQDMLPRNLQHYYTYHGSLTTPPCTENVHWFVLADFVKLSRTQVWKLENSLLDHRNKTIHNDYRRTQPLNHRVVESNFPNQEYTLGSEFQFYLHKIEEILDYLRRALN
Sequence of Carbonic anhydrase 13 (Q9D6N1 whole entry): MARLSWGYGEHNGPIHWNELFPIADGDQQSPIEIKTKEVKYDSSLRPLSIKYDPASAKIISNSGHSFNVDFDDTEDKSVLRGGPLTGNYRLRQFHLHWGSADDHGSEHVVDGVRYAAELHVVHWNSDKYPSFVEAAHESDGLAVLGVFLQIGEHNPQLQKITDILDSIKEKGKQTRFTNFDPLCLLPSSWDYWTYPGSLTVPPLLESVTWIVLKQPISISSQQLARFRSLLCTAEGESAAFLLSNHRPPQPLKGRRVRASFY

Compound	pKi (Carbonic anhydrase 13)	pKi (Carbonic anhydrase 9)	pKi (Carbonic anhydrase 6)	pKi (Carbonic anhydrase 15)	pKi [1]	pKi (Carbonic anhydrase 14)	pKi (Carbonic anhydrase 2 [2])	pKi (Carbonic anhydrase 3)	pKi (Carbonic anhydrase 2 [3])	pKi [4]	pKi (Carbonic anhydrase 4)	pKi (Carbonic anhydrase 7)	pKi (Carbonic anhydrase 12)
O=c1ccc2ccc(CCc3ccccc3)cc2o1	5.14	5.24	5.07	4.35									
CCOC(=O)c1cc2cc(CO)ccc2oc1=O		5.21	5.82		5.54	5.34	3.67	4.22	4.61	5.52	7.32	7.35	4.59
CCOc1ccc2ccc(=O)oc2c1	4.56	5.80	5.24	4.12	4.22	5.33		4.54		5.14	4.64	5.14	5.33
COc1cc2oc(=O)ccc2cc1[C@@H](O)CC(C)C	5.00			4.03									
COc1ccc2oc(=O)c(C(=O)O)cc2c1	5.09	5.24	4.98	5.14	5.12	4.40	7.23	5.05	4.87	5.06	5.31	5.31	5.17
CCCCOc1ccc2ccc(=O)oc2c1 [7-BUTOXYCOUMARIN]	5.21	5.31		4.19						5.05			
O=c1ccc2ccccc2o1 [COUMARIN]								5.25			4.21	5.48	
O=C(O)c1cc2ccccc2oc1=O [COUMARIN-3-CARBOXYLIC ACID]	4.69	5.19	4.50	5.25	5.17	5.13		5.18	< 3.30	5.05	5.42	5.29	5.54
Cc1ccc2oc(=O)c(C(=O)O)cc2c1		7.32	4.50					< 3.30				4.53	
COC(=O)c1cc2cc(CO)ccc2oc1=O	5.13	5.06		5.13							5.19		
COc1ccc2ccc(=O)oc2c1 [HERNIARIN]			4.21	< 3.30				3.79		< 3.30	5.11	5.04	
CCCOc1ccc2ccc(=O)oc2c1 [7-PROPOXYCOUMARIN]	5.18							< 3.30			4.61		
COc1cccc2cc(C(=O)O)c(=O)oc12		5.27											

Other lines, results leading:

pKi (Carbonic anhydrase 13)	pKi (Carbonic anhydrase 9)	pKi (Carbonic anhydrase 6)	pKi (Carbonic anhydrase 15)	pKi [1]	pKi (Carbonic anhydrase 14)	pKi (Carbonic anhydrase 2 [2])	pKi (Carbonic anhydrase 3)	pKi (Carbonic anhydrase 2 [3])	pKi [4]	pKi (Carbonic anhydrase 4)	pKi (Carbonic anhydrase 7)	pKi (Carbonic anhydrase 12)	Compound
7.40	5.08												NCc1ccc2oc(=O)ccc2c1
5.42	5.52												O=c1ccc2cc(C[N+]34CN5CN(CN(C5)C3)C4)ccc2o1
7.35		4.38	5.18	5.10			4.14			5.14			CCOC(=O)c1cc2ccc(OC)cc2oc1=O
5.51			5.07										O=C(O)c1cc2cc(CO)ccc2oc1=O
7.33	5.08		5.13										O=c1ccc2cc(CO)ccc2o1
5.25		5.06	5.32				< 3.30						O=C(O)c1cc2ccccc2sc1=O
7.35	5.39												COc1ccc2c(C(=O)O)cc(=O)oc2c1
